Key:
PDE6D = assay: Western blot of residual PDE6D protein level; assay type: cell-based; details: 1 μM Compound A vs 10 μM lenalidomide, 72 hours; EHEB, I83-E95, Mec2, CII, and CI
Description: Cells were then harvested and processed for SDS-PAGE and western blot. PDE6D antibody was purchased from Pierce and used at 1:300. For western blot quantification, the band intensity was measured using an Odyssey imager and then normalized to β-actin loading controls. Scatter plot: […]

[1] = tested on: samples from CLL patients; assay: in vitro proliferation assays on samples from four groups of CLL patients; assay type: cell-based, human
Text: The samples used in this study were from four groups of CLL patients.

primary CLL samples = assay: TMT-tagging and mass-spectrometry profiling of relative protein abundance after compound exposure; assay type: cell-based, human
Text: Data import: Relative abundance (RA) data was imported into the R statistical programming environment v.3.1.2. Proteins with less than one spectral count in any of the three MS runs for each case scenario were filtered out and relative abundance was scale normalized to the same median by using normalizeBetweenArrays( ) function implemented in the limma package for Bioconductor (see Yang et al., Nucleic Acids Research, 30(4), e15 (2002)).
Comparative analysis: RA scores were log 2-transformed to perform direct comparison of compounds exposure versus DMSO control and a paired moderated t-test (see Smyth, Statistical Applications in Genetics and Molecular Biology, 3(1), article 3 (2004)) was performed by using lmfit( ) and eBayes( ) functions form limma package to test differential relative abundance between experimental conditions. For differential analysis across cases, the log-2 fold changes of replicates for two of the case scenarios were considered.
Linear regression analysis: Linear regression was modeled by using lm( ) function from the stats package. This function provided the correlation coefficients as well as the linear fitted model. Data were assessed for outliers detection within the linear model via the Studentized residuals method (implemented in outlierTest( ) function from car package) and deemed significant if their q-values were under a threshold of 0.05 (5%).
The proteins subjected to the analysis were those with more than one spectral count matched in three MS runs representing each case scenario. A total of 6114, 6070, 5982 and 5382 proteins were retained for each case scenario. Differential expression analysis was applied to the high and consistent coverage of 4594 proteins quantified across all case scenarios. FIGS. 2A-2D show distribution of normalized relative abundances for each replicate of the four case scenarios (Cases B1-B4). The standard deviation of each replicate is represented as a stair-plot line at the bottom of the boxplot. FIGS. 3A-3D show heatmaps representing correlations of log 2 fold-changes of protein levels post compound treatment as compared with DMSO across conditions for all case scenarios. Low correlation of log 2 fold-changes at 6 hours may be due to the alteration of a small subset of proteins at an early time point without strong general effects across the proteome. Stronger correlations at 24 hours can be linked to a higher proportion of proteins perturbed reflecting downstream changes upon compound exposure.

Structure (SMILES): Cc1nc2cccc(N)c2c(=O)n1C1CCC(=O)NC1=O (stereo not drawn) [Compound A, 3-(5-amino-2-methyl-4-oxo-4H-quinazolin-3-yl)-piperidine-2,6-dione]
- PDE6D reduction (PDE6D): more PDE6D reduction
- effect on cell proliferation ([1]; samples from the fourth group of patients (Case B4)): neither Compound A nor lenalidomide had any effect on cell proliferation
- effect on cell proliferation ([1]; samples from the second group of patients (Case B2)): stronger proliferation reduction effect than lenalidomide
- effect on cell proliferation ([1]; samples from the third group of patients (Case B3)): reduced cell proliferation
- protein abundance levels of SELL, SNX20 and KLF13 upon exposure (primary CLL samples; 10 μM, 24 hours): down-regulated
- level of WIZ (widely-interspaced zinc-finger) upon exposure (primary CLL samples; Case B1): decreased
- RA upon Cmp A vs. len Treatment, IKZF1 (Q13422) (primary CLL samples; Case B1, 10 μM, 24 hours): Lower
- RA upon Cmp A vs. len treatment, BCL2L1 (Q07817) (primary CLL samples; Case B1, 10 μM, 24 hours): Higher
- RA upon Cmp A vs. len treatment, GZMB (P10144) (primary CLL samples; Case B1, 10 μM, 24 hours): Lower
- RA upon Cmp A vs. len treatment, IGHM (P01871-2) (primary CLL samples; Case B1, 10 μM, 24 hours): Lower
- RA upon Cmp A vs. len treatment, IKZF1 (Q13422-2) (primary CLL samples; Case B1, 10 μM, 24 hours): Lower
- RA upon Cmp A vs. len treatment, IRF8 (Q02556) (primary CLL samples; Case B1, 10 μM, 24 hours): Lower
- RA upon Cmp A vs. len treatment, KLF13 (Q9Y2Y9) (primary CLL samples; Case B1, 10 μM, 24 hours): Lower
- RA upon Cmp A vs. len treatment, LGALS9 (O00182) (primary CLL samples; Case B1, 10 μM, 24 hours): Lower
- RA upon Cmp A vs. len treatment, MARCKS (P29966) (primary CLL samples; Case B1, 10 μM, 24 hours): Higher
- RA upon Cmp A vs. len treatment, NDE1 (Q9NXR1) (primary CLL samples; Case B1, 10 μM, 24 hours): Higher
- RA upon Cmp A vs. len treatment, NFKBIE (O00221) (primary CLL samples; Case B1, 10 μM, 24 hours): Lower
- RA upon Cmp A vs. len treatment, PTK2B (Q14289-2) (primary CLL samples; Case B1, 10 μM, 24 hours): Higher
- RA upon Cmp A vs. len treatment, SAMSN1 (Q9NSI8) (primary CLL samples; Case B1, 10 μM, 24 hours): Higher
- RA upon Cmp A vs. len treatment, SELL (P14151-2) (primary CLL samples; Case B1, 10 μM, 24 hours): Lower
- RA upon Cmp A vs. len treatment, SLAMF1 (Q13291) (primary CLL samples; Case B1, 10 μM, 24 hours): Higher
- RA upon Cmp A vs. len treatment, SNX20 (Q7Z614) (primary CLL samples; Case B1, 10 μM, 24 hours): Lower
- RA upon Cmp A vs. len treatment, SOD2 (P04179) (primary CLL samples; Case B1, 10 μM, 24 hours): Higher
- RA upon Cmp A vs. len treatment, TCF7 (P36402-3) (primary CLL samples; Case B1, 10 μM, 24 hours): Lower
- RA upon Cmp A vs. len treatment, TRAF1 (Q13077) (primary CLL samples; Case B1, 10 μM, 24 hours): Higher
- RA upon Cmp A vs. len treatment, WIZ (M0QXA7) (primary CLL samples; Case B1, 10 μM, 24 hours): Lower
- RA upon Cmp A vs. len treatment, ZBTB10 (Q96DT7) (primary CLL samples; Case B1, 10 μM, 24 hours): Higher
- RA upon Cmp A vs. len Treatment, IKZF1 (Q13422) (primary CLL samples; Case B2, 10 μM, 24 hours): Lower
- RA upon Cmp A vs. len Treatment, IKZF3 (Q9UKT9) (primary CLL samples; Case B2, 10 μM, 24 hours): Lower
- abundance levels of GBP2 and GBP4 upon exposure (primary CLL samples; Case B3): increased abundance levels
- RA upon Cmp A vs. len Treatment, CD40 (P25942) (primary CLL samples; Case B3, 10 μM, 24 hours): Higher
- RA upon Cmp A vs. len Treatment, CR2 (P20023-3) (primary CLL samples; Case B3, 10 μM, 24 hours): Higher
- RA upon Cmp A vs. len Treatment, CTSS (P25774) (primary CLL samples; Case B3, 10 μM, 24 hours): Higher
- RA upon Cmp A vs. len Treatment, GBP1 (P32455) (primary CLL samples; Case B3, 10 μM, 24 hours): Higher
- RA upon Cmp A vs. len Treatment, IKZF1 (Q13422) (primary CLL samples; Case B3, 10 μM, 24 hours): Lower
- RA upon Cmp A vs. len Treatment, IKZF3 (Q9UKT9) (primary CLL samples; Case B3, 10 μM, 24 hours): Lower
- RA upon Cmp A vs. len Treatment, ISG20 (Q96AZ6) (primary CLL samples; Case B3, 10 μM, 24 hours): Higher
- RA upon Cmp A vs. len Treatment, SASH1 (O94885) (primary CLL samples; Case B3, 10 μM, 24 hours): Higher
- RA upon Cmp A vs. len Treatment, SEMA7A (O75326) (primary CLL samples; Case B3, 10 μM, 24 hours): Higher
- RA upon Cmp A vs. len treatment, PTK2B (Q14289-2) (primary CLL samples; Case B3, 10 μM, 24 hours): Higher
- RA upon Cmp A vs. len treatment, SAMSN1 (Q9NSI8) (primary CLL samples; Case B3, 10 μM, 24 hours): Higher
- RA upon Cmp A vs. len treatment, SELL (P14151-2) (primary CLL samples; Case B3, 10 μM, 24 hours): Lower
- RA upon Cmp A vs. len treatment, SLAMF1 (Q13291) (primary CLL samples; Case B3, 10 μM, 24 hours): Higher
- RA upon Cmp A vs. len treatment, SOD2 (P04179) (primary CLL samples; Case B3, 10 μM, 24 hours): Higher
- RA upon Cmp A vs. len treatment, TRAF1 (Q13077) (primary CLL samples; Case B3, 10 μM, 24 hours): Higher
- IRF5 protein level (primary CLL samples; Case B4 (not quantified in B2)): exclusively decreased
- RA upon Cmp A vs. len Treatment, PDE6D (O43924) (primary CLL samples; Case B4, 10 μM, 24 hours): Lower
- logFC BCL2L1 (Q07817) (primary CLL samples; Cmp A vs. len, Case B1, 10 μM, 24 hours): 0.5326

Reference: patent publication US20170038387A1, “METHODS FOR TREATING CHRONIC LYMPHOCYTIC LEUKEMIA AND THE USE OF BIOMARKERS AS A PREDICTOR OF CLINICAL SENSITIVITY TO IMMUNOMODULATORY THERAPIES” (Celgene Corporation, priority 2015, published 2017)
